Data from ChEMBL document CHEMBL1144061, “Biologically active triterpene saponins from callus tissue of Polygala amarella” (J Nat Prod, 1999).

Experiments:
[1] = Cytotoxicity against human granulocytes upto 100 ug/mL
[2] = Induction of human granulocyte phagocytosis at 10 to 100 ug/mL; type: functional

Q: Which Activity [1] does the source give for C[C@H]1O[C@@H](OC(=O)[C@]23CCC(C)(C)C[C@H]2C2=CC[C@@H]4[C@@]5(C)C[C@H](O)C(O[C@@H]6O[C@H](CO)[C@@H](O)[C@H](O)[C@H]6O)[C@@](C)(C(=O)O)[C@@H]5CC[C@@]4(C)[C@]2(CO)CC3)[C@H](O[C@@H]2O[C@H](C)[C@H](O[C@@H]3OC[C@@H](O)[C@H](O[C@@H]4O[C@H](CO)[C@H](O)[C@H](O)[C@H]4O)[C@H]3O)[C@@H](O)[C@H]2O)[C@@H](O[C@@H]2O[C@H](CO)[C@@H](O)[C@H](O)[C@H]2O)[C@H]1O (some centres not stated) here?
A: Non-toxic

Q: What about the Activity [2] of the same molecule?
A: 60%
